From the CheMixHub ionic liquid set
Several values for one entry are separate records, joined by “and”; a condition that tells them apart may be missing. Identical values can stand only once.

Test: xn = mol fraction of the nth substance listed

CCCCCCCCn1cc[n+](C)c1.[Cl-] + OC[C@H]1O[C@@](CO)(O[C@H]2O[C@H](CO)[C@@H](O)[C@H](O)[C@H]2O)[C@@H](O)[C@@H]1O + O
298.15 K, 101.3 kPa
Conditions | electrical conductivity
x2 = 0, x1 = 4.96e-06 | 0.00314 S/m
x2 = 0, x1 = 7.53e-06 | 0.00467 S/m
x2 = 0, x1 = 1.002e-05 | 0.00613 S/m
x2 = 0, x1 = 1.247e-05 | 0.00756 S/m
x2 = 0, x1 = 1.481e-05 | 0.00893 S/m
x2 = 0, x1 = 1.716e-05 | 0.01029 S/m
x2 = 0, x1 = 1.95e-05 | 0.0116 S/m
x2 = 0, x1 = 2.177e-05 | 0.0129 S/m
x2 = 0, x1 = 2.424e-05 | 0.01436 S/m
x2 = 0, x1 = 2.667e-05 | 0.0158 S/m
x2 = 0, x1 = 2.939e-05 | 0.0173 S/m
x2 = 0.003591, x1 = 1.259e-05 | 0.00669 S/m
x2 = 0.003591, x1 = 1.587e-05 | 0.00832 S/m
x2 = 0.003591, x1 = 1.902e-05 | 0.00988 S/m
x2 = 0.003591, x1 = 2.222e-05 | 0.0114 S/m
x2 = 0.003591, x1 = 2.521e-05 | 0.0129 S/m
x2 = 0.003591, x1 = 2.835e-05 | 0.0144 S/m
x2 = 0.003591, x1 = 3.142e-05 | 0.0159 S/m
x2 = 0.003591, x1 = 3.424e-05 | 0.01727 S/m
x2 = 0.003591, x1 = 3.712e-05 | 0.0186 S/m
x2 = 0.007156, x1 = 1.254e-05 | 0.00531 S/m
x2 = 0.007156, x1 = 1.623e-05 | 0.00676 S/m
x2 = 0.007156, x1 = 1.993e-05 | 0.00821 S/m
x2 = 0.007156, x1 = 2.37e-05 | 0.00967 S/m
x2 = 0.007156, x1 = 2.738e-05 | 0.0111 S/m
x2 = 0.007156, x1 = 3.084e-05 | 0.01242 S/m
x2 = 0.007156, x1 = 3.403e-05 | 0.0137 S/m
x2 = 0.007156, x1 = 3.72e-05 | 0.0149 S/m
x2 = 0.007156, x1 = 4.042e-05 | 0.01608 S/m
x2 = 0.007156, x1 = 4.288e-05 | 0.01701 S/m
x2 = 0.0107, x1 = 8.12e-06 | 0.00311 S/m
x2 = 0.0107, x1 = 1.295e-05 | 0.00472 S/m
x2 = 0.0107, x1 = 1.756e-05 | 0.00623 S/m
x2 = 0.0107, x1 = 2.181e-05 | 0.00762 S/m
x2 = 0.0107, x1 = 2.602e-05 | 0.00898 S/m
x2 = 0.0107, x1 = 3.017e-05 | 0.0103 S/m
x2 = 0.0107, x1 = 3.408e-05 | 0.0115 S/m
x2 = 0.0107, x1 = 3.778e-05 | 0.0127 S/m
x2 = 0.0107, x1 = 4.136e-05 | 0.0138 S/m
x2 = 0.0107, x1 = 4.484e-05 | 0.0149 S/m
x2 = 0.0107, x1 = 4.818e-05 | 0.016 S/m
x2 = 0.01421, x1 = 9.43e-06 | 0.00302 S/m
x2 = 0.01421, x1 = 1.407e-05 | 0.00432 S/m
x2 = 0.01421, x1 = 1.861e-05 | 0.00559 S/m
x2 = 0.01421, x1 = 2.29e-05 | 0.00678 S/m
x2 = 0.01421, x1 = 2.718e-05 | 0.00795 S/m
x2 = 0.01421, x1 = 3.134e-05 | 0.00908 S/m
x2 = 0.01421, x1 = 3.512e-05 | 0.0101 S/m
x2 = 0.01421, x1 = 3.883e-05 | 0.0111 S/m
x2 = 0.01421, x1 = 4.258e-05 | 0.0121 S/m
x2 = 0.01421, x1 = 4.643e-05 | 0.01312 S/m
x2 = 0.0177, x1 = 7.66e-06 | 0.00219 S/m
x2 = 0.0177, x1 = 1.502e-05 | 0.00393 S/m
x2 = 0.0177, x1 = 2.194e-05 | 0.00554 S/m
x2 = 0.0177, x1 = 2.846e-05 | 0.00705 S/m
x2 = 0.0177, x1 = 3.471e-05 | 0.00848 S/m
x2 = 0.0177, x1 = 4.134e-05 | 0.00996 S/m
x2 = 0.0177, x1 = 4.728e-05 | 0.01128 S/m
x2 = 0.0177, x1 = 5.36e-05 | 0.0127 S/m
x2 = 0.0177, x1 = 5.928e-05 | 0.0139 S/m
x2 = 0.0177, x1 = 6.496e-05 | 0.01517 S/m
x2 = 0.02116, x3 = 0.9788 | 0.0133 S/m and 0.0143 S/m

CC[NH3+].O=[N+]([O-])[O-] + CC[N+](CC)(CC)CC.O=[N+]([O-])[O-]
Conditions | viscosity [mPa·s]
338.15 K, 101 kPa, x2 = 0 | 12.5

CCCC[n+]1ccccc1.N#C[N-]C#N + O
100 kPa
Conditions | electrical conductivity [S/m] | viscosity [mPa·s]
298.15 K, x1 = 0.9563 | – | 30.06
298.15 K, x1 = 0.9642 | 0.931 | –
303.15 K, x1 = 0.9189 | 1.17 | –
303.15 K, x1 = 0.9338 | 1.14 | –
303.15 K, x1 = 0.9488 | 1.12 | –
303.15 K, x1 = 0.9563 | – | 24.67
313.15 K, x1 = 0.926 | – | 16.69
313.15 K, x1 = 0.9563 | – | 17.57
313.15 K, x1 = 0.9642 | 1.54 | –
318.15 K, x1 = 0.926 | – | 14.38
318.15 K, x1 = 0.9338 | 1.89 | –
318.15 K, x1 = 0.9722 | – | 15.54
323.15 K, x1 = 0.9563 | – | 12.69
323.15 K, x2 = 0.01155 | – | 13.56
328.15 K, x1 = 0.926 | – | 10.62
328.15 K, x1 = 0.9412 | – | 10.83
333.15 K, x1 = 0.9488 | 2.75 | –
333.15 K, x1 = 0.9563 | – | 9.77
333.15 K, x1 = 0.9642 | 2.7 | –
338.15 K, x1 = 0.9412 | – | 8.47
